# Experimental data as given in patent publication US20120101077A1, “AGGLOMERATE FORMULATIONS USEFUL IN DRY POWDER INHALERS” (Schering Corporation, priority 2009, published 2012).
# Read-outs that look alike come from different tables or passages of the source.
# What was measured:
# [1] = Particle size of micronized materials by HELOS laser diffraction; format: physicochemical; settings: jet-milled micronized material
# Experimental: Micronization of the drug and lactose were performed in-house using a jet-mill (Micron Master, The Jet Pulverizer Co., Inc, Moorestown, N.J.). […] Particle size measurements of the micronized materials were performed using a HELOS® (Sympatec Inc., Clausthal-Zellerfeld, Germany) laser diffraction system.
# [2] = cited from earlier work
# [3] = cited from earlier work; remark: listed apart in the source
# [4] = Specific surface area of additional functional excipients; format: physicochemical
Compound,average particle size (DV50) [1] [μm],solubility ([2]; in acetone),solubility ([2]; in chloroform),solubility ([2]; in ethanol),solubility ([2]; in isopropanol),solubility ([2]; in methanol),solubility ([2]; in tetrahydrofuran),solubility ([2]; in water),partition coefficient between octanol and water [3],specific surface area [4] [m^2/g]
"C[C@@H]1C[C@H]2[C@@H]3CCC4=CC(=O)C=C[C@]4(C)[C@@]3(Cl)[C@@H](O)C[C@]2(C)[C@@]1(OC(=O)c1ccco1)C(=O)CCl [Mometasone furoate, 9,21-Dichloro-11(beta), 17-dihydroxy-16(alpha)-methylpregna-1,4-diene-3,20-dione 17-(2 furoate)]",1.1,soluble,soluble,slightly soluble,slightly soluble,slightly soluble,freely soluble,practically insoluble,greater than 5000,–
"OC[C@H]1O[C@@H](O[C@H]2[C@H](O)[C@@H](O)[C@@H](O)O[C@@H]2CO)[C@H](O)[C@@H](O)[C@H]1O [micronized lactose, lactose anhydrous, NF]",2.0,–,–,–,–,–,–,–,–,–
magnesium stearate,–,–,–,–,–,–,–,–,–,8
